Values of other authors as cited in Sander's compilation of Henry's law constants (doi:10.1063/1.555654).

Assay: Henry solubility constant Hcp at 298.15 K (mol/(m3 Pa))
Conditions: reference: Mackay and Shiu (1981); cited value

Row | Henry solubility constant Hcp | SMILES
1 | 6.3e-06 | CC1CCC(C)(C)C1 (stereo unspecified) [1,1,3-trimethylcyclopentane]
2 | 0.0031 | Cc1cccc(C)c1C [1,2,3-trimethylbenzene]
3 | 0.0017 | Cc1ccc(C)c(C)c1 [1,2,4-trimethylbenzene]
4 | 0.00052 | C#CCC [1-butyne]
5 | 0.0083 | CC(C)CCl [1-chloro-2-methylpropane]
6 | 0.002 | CCc1ccc(C)cc1 [1-ethyl-4-methylbenzene]
7 | 0.0013 | Cc1ccc(C(C)C)cc1 [1-methyl-4-(1-methylethyl)-benzene]
8 | 0.022 | Cc1cccc2ccccc12 [1-methylnaphthalene]
9 | 1e-05 | C=CCCCCCC [1-octene]
10 | 2.5e-05 | C=CCCC [1-pentene]
11 | 3e-06 | CC(C)CC(C)(C)C [2,2,4-trimethylpentane]
12 | 2.9e-06 | CC(C)CCC(C)(C)C [2,2,5-trimethylhexane]
13 | 5.8e-06 | CCC(C)(C)C [2,2-dimethylbutane]
14 | 3.1e-06 | CCCC(C)(C)C [2,2-dimethylpentane]
15 | 5.3e-06 | CC(C)C(C)C(C)C [2,3,4-trimethylpentane]
16 | 0.12 | c1ccc2c(c1)Cc1ccccc1-2 [2,3-benzindene]
17 | 7.7e-06 | CC(C)C(C)C [2,3-dimethylbutane]
18 | 5.7e-06 | CCC(C)C(C)C (stereo unspecified) [2,3-dimethylpentane]
19 | 3.3e-06 | CC(C)CC(C)C [2,4-dimethylpentane]
20 | 3.6e-05 | C=C(C)CCC [2-methyl-1-pentene]
21 | 7.2e-06 | CCC(C)C [2-methylbutane]
22 | 2.9e-06 | CCCCC(C)C [2-methylhexane]

Row | Henry solubility constant Hcp | SMILES
23 | 5.9e-06 | CCCC(C)C [2-methylpentane]
24 | 8.3e-06 | CC(C)C [2-methylpropane]
25 | 5.4e-06 | CCC(C)(C)CC [3,3-dimethylpentane]
26 | 1.8e-05 | C=CC(C)C [3-methyl-1-butene]
27 | 2.7e-06 | CCCCC(C)CC (stereo unspecified) [3-methylheptane]
28 | 4.2e-06 | CCCC(C)CC (stereo unspecified) [3-methylhexane]
29 | 5.8e-06 | CCC(C)CC [3-methylpentane]
30 | 1.6e-05 | C=CCC(C)C [4-methyl-1-pentene]
31 | 1e-06 | CCCCC(C)CCC (stereo unspecified) [4-methyloctane]
32 | 0.00083 | CC(C)(C)c1ccccc1 [(1,1-dimethylethyl)-benzene]
33 | 0.00071 | CCC(C)c1ccccc1 (stereo unspecified) [(1-methylpropyl)-benzene]
34 | 0.0003 | CC(C)Cc1ccccc1 [(2-methylpropyl)-benzene]
35 | 0.17 | c1ccc2cc3ccccc3cc2c1 [anthracene]
36 | 0.0018 | c1ccccc1 [benzene]
37 | 1e-05 | CCCC [butane]
38 | 0.005 | CCCl [chloroethane]
39 | 2.8e-05 | C[C@@H]1CCCC[C@@H]1C [cis-1,2-dimethylcyclohexane]
40 | 5.6e-05 | C1CCCCC1 [cyclohexane]
41 | 5.4e-05 | C1CCCC1 [cyclopentane]
42 | 1.4e-06 | CCCCCCCCCC [decane]
43 | 0.0038 | ClCCl [dichloromethane]
44 | 2.7e-06 | CC(C)(C)C [dimethylpropane]

Row | Henry solubility constant Hcp | SMILES
45 | 1.3e-06 | CCCCCCCCCCCC [dodecane]
46 | 4.6e-05 | C=C [ethene]
47 | 0.0013 | CCc1ccccc1 [ethylbenzene]
48 | 0.0016 | Fc1ccccc1 [fluorobenzene]
49 | 4.3e-06 | CCCCCCC [heptane]
50 | 5.9e-06 | CCCCCC [hexane]
51 | 0.0077 | Ic1ccccc1 [iodobenzene]
52 | 2.5e-05 | CC1CCCCC1 [methylcyclohexane]
53 | 2.7e-05 | CC1CCCC1 [methylcyclopentane]
54 | 0.023 | c1ccc2ccccc2c1 [naphthalene]
55 | 2e-06 | CCCCCCCCC [nonane]
56 | 3.3e-06 | CCCCCCCC [octane]
57 | 8e-06 | CCCCC [pentane]
58 | 0.0017 | CCCCCc1ccccc1 [pentylbenzene]
59 | 5.4e-06 | CCCCCC1CCCC1 [pentylcyclopentane]
60 | 0.25 | c1ccc2c(c1)ccc1ccccc12 [phenanthrene]
61 | 4.7e-05 | C=CC [propene]
62 | 0.0014 | CCCc1ccccc1 [propylbenzene]
63 | 0.0009 | C#CC [propyne]
64 | 1.1e-05 | C[C@H]1CC[C@H](C)CC1 [trans-1,4-dimethylcyclohexane]
65 | 2.4e-05 | C/C=C/CCCC [trans-2-heptene]

Row | SMILES | Henry solubility constant Hcp
66 | ClCC(Cl)(Cl)Cl [1,1,1,2-tetrachloroethane] | 0.0036
67 | Clc1ccc(C(c2ccc(Cl)cc2)C(Cl)(Cl)Cl)cc1 [1,1,1-trichloro-2,2-bis-(4-chlorophenyl)-ethane] | 0.19
68 | CC(Cl)(Cl)Cl [1,1,1-trichloroethane] | 0.00036
69 | ClC(Cl)C(Cl)Cl [1,1,2,2-tetrachloroethane] | 0.021
70 | ClCC(Cl)Cl [1,1,2-trichloroethane] | 0.0083
71 | Cc1ccccc1C [1,2-dimethylbenzene] | 0.002
72 | Cc1cc(C)cc(C)c1 [1,3,5-trimethylbenzene] | 0.0017
73 | C=CC=C [1,3-butadiene] | 0.00013
74 | Clc1cccc(Cl)c1 [1,3-dichlorobenzene] | 0.0028
75 | Cc1cccc(C)c1 [1,3-dimethylbenzene] | 0.0014
76 | Clc1ccc(Cl)cc1 [1,4-dichlorobenzene] | 0.0063
77 | Cc1ccc(C)cc1 [1,4-dimethylbenzene] | 0.0014
78 | CCc1cccc2ccccc12 [1-ethylnaphthalene] | 0.026
79 | C=C(Cl)CCl [2,3-dichloropropene] | 0.0028
80 | CCc1ccc2ccccc2c1 [2-ethylnaphthalene] | 0.012
81 | C=CC(=C)C [2-methyl-1,3-butadiene] | 0.00013
82 | C=CCCl [3-chloro-1-propene] | 0.00091
83 | c1cc2c3c(cccc3c1)CC2 [acenaphthene] | 0.042

Row | SMILES | Henry solubility constant Hcp
84 | ClC1=C(Cl)[C@]2(Cl)[C@H]3[C@H]([C@@H]4C=C[C@H]3C4)[C@@]1(Cl)C2(Cl)Cl [aldrin] | 0.36
85 | c1ccc2c(c1)-c1cccc3cccc-2c13 [benzo[jk]fluorene] | 0.0045
86 | c1ccc(-c2ccccc2)cc1 [biphenyl] | 0.036
87 | Brc1ccccc1 [bromobenzene] | 0.0048
88 | CCCCc1ccccc1 [butylbenzene] | 0.00077
89 | Clc1ccccc1 [chlorobenzene] | 0.0029
90 | Cl/C=C\CCl [cis-1,3-dichloropropene] | 0.0042
91 | BrCBr [dibromomethane] | 0.031
92 | ClC1=C(Cl)[C@]2(Cl)[C@@H]3[C@@H]4C[C@@H]([C@H]5O[C@@H]45)[C@@H]3[C@@]1(Cl)C2(Cl)Cl [dieldrin] | 0.91
93 | COP(=S)(Oc1cc(Cl)c(Br)cc1Cl)c1ccccc1 (stereo unspecified) [leptophos] | 3.7
94 | Cc1ccccc1 [methylbenzene] | 0.0015
95 | COP(=S)(OC)Oc1ccc([N+](=O)[O-])cc1 [methylparathion] | 50
96 | ClC(Cl)C(Cl)(Cl)Cl [pentachloroethane] | 0.0045
97 | ClC(Cl)=C(Cl)Cl [tetrachloroethene] | 0.00043
98 | ClC(Cl)(Cl)Cl [tetrachloromethane] | 0.0005
99 | Cl/C=C/CCl [trans-1,3-dichloropropene] | 0.0056
100 | BrC(Br)Br [tribromomethane] | 0.016
101 | ClC1C(Cl)C(Cl)C(Cl)C(Cl)C1Cl (stereo unspecified) [γ-1,2,3,4,5,6-hexachlorocyclohexane] | 3.1
